The values below come from patent US9927440B2, “Protein engineering” (priority 2009, dated 2018).

Series [1] has as its target T1, Staphylococcal nuclease (SN) (Staphylococcus aureus, UniProt P00644).
T1 construct: made in house; host or cells: cell-free TnT, E. coli BL21 Star (DE3) extract
It counts as binding. Particulars: SN/L36C; 35.3 °C; from single ΔΔGU measurement; read-out: apparent KD (binary complex). As to the method: (§1) The rate of labeling of internal cysteine residues was measured by reacting 30-50 μL of ˜0.1 μM protein sample (i.e., ˜3-5 picomoles of protein) with excess IAM-biotin (1 mM unless otherwise stated) at constant temperature (25 mM MOPS, 100 mM KCl and pH 7.6). 5 μL aliquots were removed at fixed time intervals and quenched by addition of 2 μL 2M β-mercaptoethanol (Sigma; M6250). Following addition of 5 μL LDS-buffer (Invitrogen; NP0007) and heating for 2 min at 85° C., (un)labeled protein species were resolved by SDS-PAGE (Novex 4-12% Bis-Tris Gels; Invitrogen; NP0321). […] For the experiment shown in FIG. 8A, ecRBP variant L62C was modified with 1 mM IAM-biotin at 47.1° C., pH 7.6. […] Streptavidin was used to alter the electrophoretic mobility of the labeled protein (Streptavidin bands indicated by a, b, and c). […] Error bars represent the estimated uncertainty of the integrated band intensities (˜2%). For the experiment shown in FIG. 8B, SN variant L36C was labeled with IAM-biotin at 35.3° C., pH 7.6. […] At 29.3° C., 26.3° C. and 23.3° C., kint and klabel were manipulated by increasing the concentration of IAM-biotin from 1 mM to 3.16 mM.
(§2) The modulation of protein stability by binding of metals, ligands, activators, inhibitors, substrates, nucleic acid or other proteins can be used to measure binding affinities within a GUWO. For a protein with a single binding site, the free energy of ligand binding was described by
(§3) [formula] where P was the binding polynomial, [L] the total ligand concentration, and KD the apparent dissociation constant of the ligand. For proteins with multiple ligand-binding sites, P was expanded as described in Equations 21-36 below.
(§4) By thermodynamic linkage, any change in ΔGU caused predominantly by ligand binding (Scheme 1) is ΔGbind=ΔΔ^LGU=Δ^LGU−Δ^apoGU [20] where Δ^LGU and Δ^apoGU were the stability of the protein in the presence of absence of ligand respectively. Equation 20 was used to obtain apparent KD values from either the ligand dependence of ΔΔGU (by curve fitting), or from a single measurement of ΔΔGU.

In series [2] the target is T2, Staphylococcal nuclease (SN) (Staphylococcus aureus, UniProt P00644, L118C/Q162N).
T2 construct: made in house; host or cells: cell-free TnT, E. coli BL21 Star (DE3) extract
It counts as binding. Particulars: 35.3 °C. As to the method:
as §1, §2, §3, §4

The next series deals with SN (Staphylococcus aureus, UniProt P00644). Particulars: cited from earlier work.
For series [3] the following is noted: literature; cited from earlier work.
The mark [4] stands for this setting: Ca2+ and pdTp synergistic, read-out: affinity for SN in the presence of the other ligand.

Read-outs that look alike come from different tables or passages of the source.

In the case of `[Ca+2]` [Ca^2+], the Kd in series [1] was 600 ± 200 µM; on SN (setting [4]), approximately 2 µM; at SN (Serpersu et al. 1986, read-out: affinity for SN, ligand by itself) it was approximately 500 µM. In series [2] (1 mM Ca2+), the “increase in stability (ΔΔGU) of SN/L36C” value stood at 0.6 ± 0.2 kcal/mol.
`Cc1cn([C@H]2C[C@H](OP(=O)(O)O)[C@@H](COP(=O)(O)O)O2)c(=O)[nH]c1=O` [pdTp]: the Kd in series [1] was 23 ± 4 µM; on SN (setting [4]), approximately 2 µM. Moreover, the “increase in stability (ΔΔGU) of SN/L36C” value in series [2] (50 μM pdTp) came out at 0.7 ± 0.2 kcal/mol.

B1: wild-type ecRBP: wild-type E. coli ribose-binding protein (protein, listed as Escherichia coli)
chain: MKDTIALVVSTLNNPFFVSLKDGAQKEADKLGYNLVVLDSQNNPAKELANVQDLTVRGTKILLINPTDSDAVGNAVKMANQANIPVITLDRQATKGEVVSHIASDNVLGGKIAGDYIAKKAGEGAKVIELQGIAGTSAARERGEGFQQAVAAHKFNVLASQPADFDRIKGLNVMQNLLTAHPDVQAVFAQNDEMALGALRALQTAGKSDVMVVGFDGTPDGEKAVNDGKLAATIAQLPDQIGAKGVETADKVLKGEKVQAKYPVDLKLVVKQNGGSHHHHHH
For B1, in series [3], the Tm of wild-type is 62.6 °C.
